From PubChem BioAssay (NCI)
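1) Cells in 96-well plates. 2) Compound, 48 h, 5 concentrations. 3) Linear interpolation between surrounding doses. 4) Unreached endpoint = highest concentration. At the GI50, growth is halved. Definition used: TGI = concentration required for complete inhibition of growth.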

Experiments:
Experiment in all cases: DTP human tumour cell line panel, 48 h
M14 melanoma = system: M14 melanoma
MDA-MB-435 = system: MDA-MB-435
OVCAR-5 ovarian = system: OVCAR-5 ovarian
HT29 colon = system: HT29 colon
OVCAR-3 ovarian = system: OVCAR-3 ovarian
SK-MEL-28 melanoma = system: SK-MEL-28 melanoma
SNB-75 CNS = system: SNB-75 CNS
HS 578T breast = system: HS 578T breast
NCI-H226 lung = system: NCI-H226 lung
CCRF-CEM leukemia = system: CCRF-CEM leukemia
SK-MEL-5 melanoma = system: SK-MEL-5 melanoma
MOLT-4 leukemia = system: MOLT-4 leukemia
PC-3 prostate = system: PC-3 prostate
UACC-62 melanoma = system: UACC-62 melanoma
UACC-257 melanoma = system: UACC-257 melanoma
OVCAR-4 ovarian = system: OVCAR-4 ovarian
MCF7 breast = system: MCF7 breast
CAKI-1 renal = system: CAKI-1 renal
RPMI-8226 leukemia = system: RPMI-8226 leukemia
COLO 205 colon = system: COLO 205 colon
ACHN renal = system: ACHN renal
OVCAR-8 ovarian = system: OVCAR-8 ovarian
SW-620 colon = system: SW-620 colon
UO-31 renal = system: UO-31 renal
HCT-116 colon = system: HCT-116 colon
SF-539 CNS = system: SF-539 CNS
NCI-H23 lung = system: NCI-H23 lung
HCT-15 colon = system: HCT-15 colon
A549 NSCLC = system: A549 NSCLC
DU-145 prostate = system: DU-145 prostate
TK-10 renal = system: TK-10 renal
SK-OV-3 ovarian = system: SK-OV-3 ovarian
IGROV1 ovarian = system: IGROV1 ovarian
HOP-92 NSCLC = system: HOP-92 NSCLC
T-47D breast = system: T-47D breast
NCI-H460 lung = system: NCI-H460 lung
HCC-2998 colon = system: HCC-2998 colon
NCI/ADR-RES ovarian = system: NCI/ADR-RES ovarian
RXF 393 renal = system: RXF 393 renal
K-562 leukemia = system: K-562 leukemia
SR leukemia = system: SR leukemia
SNB-19 CNS = system: SNB-19 CNS
U251 CNS = system: U251 CNS
HL-60(TB) leukemia = system: HL-60(TB) leukemia
A498 renal = system: A498 renal
786-0 renal = system: 786-0 renal

## CCOP(=O)(OCC)OC[C@]12CCC(C)(C)C[C@H]1C1=CC[C@@H]3[C@@]4(C)C/C(=C\c5cccnc5)[C@H](OP(=O)(OCC)OCC)C(C)(C)[C@@H]4CC[C@@]3(C)[C@]1(C)CC2
M14 melanoma
  GI50: 1800 nM
  TGI: 3700 nM
MDA-MB-435
  GI50: 1600 nM
  TGI: 3230 nM
OVCAR-5 ovarian
  GI50: 1790 nM
  TGI: 3340 nM
HT29 colon
  GI50: 1520 nM
  TGI: 3160 nM
OVCAR-3 ovarian
  GI50: 1680 nM
  TGI: 3390 nM
SK-MEL-28 melanoma
  GI50: 1710 nM
  TGI: 3270 nM
SNB-75 CNS
  GI50: 1600 nM
  TGI: 3910 nM
HS 578T breast
  GI50: 2060 nM
  TGI: 5380 nM
NCI-H226 lung
  GI50: 1440 nM
  TGI: 3130 nM
CCRF-CEM leukemia
  GI50: 1770 nM
  TGI: 4000 nM
SK-MEL-5 melanoma
  GI50: 1420 nM
  TGI: 2730 nM
MOLT-4 leukemia
  GI50: 715 nM
  TGI: 2420 nM
PC-3 prostate
  GI50: 727 nM
  TGI: 2770 nM
UACC-62 melanoma
  GI50: 1280 nM
  TGI: 2880 nM
UACC-257 melanoma
  GI50: 1640 nM
  TGI: 4060 nM
OVCAR-4 ovarian
  GI50: 1700 nM
  TGI: 4370 nM
MCF7 breast
  GI50: 1370 nM
  TGI: 3040 nM
CAKI-1 renal
  GI50: 1090 nM
  TGI: 2650 nM
RPMI-8226 leukemia
  GI50: 939 nM
  TGI: 3330 nM
COLO 205 colon
  GI50: 1570 nM
  TGI: 3320 nM
ACHN renal
  GI50: 2300 nM
  TGI: 7140 nM
OVCAR-8 ovarian
  GI50: 2290 nM
  TGI: 6520 nM
SW-620 colon
  GI50: 1790 nM
  TGI: 3610 nM
UO-31 renal
  GI50: 1920 nM
  TGI: 6040 nM
HCT-116 colon
  GI50: 1250 nM
  TGI: 2580 nM
SF-539 CNS
  GI50: 1730 nM
  TGI: 3200 nM
NCI-H23 lung
  GI50: 1610 nM
  TGI: 3290 nM
HCT-15 colon
  GI50: 1560 nM
  TGI: 3430 nM
A549 NSCLC
  GI50: 2000 nM
  TGI: 5590 nM
DU-145 prostate
  GI50: 1750 nM
  TGI: 3300 nM
TK-10 renal
  GI50: 2680 nM
  TGI: 6320 nM
SK-OV-3 ovarian
  GI50: 2100 nM
  TGI: 5280 nM
IGROV1 ovarian
  GI50: 2210 nM
  TGI: 5610 nM
HOP-92 NSCLC
  GI50: 1220 nM
  TGI: 2900 nM
T-47D breast
  GI50: 1580 nM
  TGI: 8350 nM
NCI-H460 lung
  GI50: 1780 nM
  TGI: 3550 nM
HCC-2998 colon
  GI50: 1590 nM
  TGI: 3030 nM
NCI/ADR-RES ovarian
  GI50: 2250 nM
  TGI: 6050 nM
RXF 393 renal
  GI50: 1190 nM
  TGI: 2490 nM
K-562 leukemia
  GI50: 1180 nM
  TGI: 3530 nM
SR leukemia
  GI50: 1020 nM
  TGI: 2780 nM
SNB-19 CNS
  GI50: 1660 nM
  TGI: 3140 nM
U251 CNS
  GI50: 1610 nM
  TGI: 3200 nM
HL-60(TB) leukemia
  GI50: 581 nM
  TGI: 2300 nM
A498 renal
  GI50: 1640 nM
  TGI: 4440 nM
786-0 renal
  GI50: 1860 nM
  TGI: 3890 nM
